In ChEMBL document CHEMBL1201862, “PubChem BioAssay data set” (2004):
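A five-concentration, 48-hour dose response in 96-well plates underlies each endpoint, interpolated linearly between surrounding concentrations. Abbreviation: GI50, concentration required for 50% inhibition of growth.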 Activity calls are given as the source filed them. Cut-off read from the data, not from the text of the source: active = GI50 up to about 1.1 µM and inactive = higher.

What was measured:
Test in all cases: DTP human tumour cell line panel, 48 h
[1] = system: NCI/ADR-RES
[2] = system: HCT-15
[3] = system: 786-0
[4] = system: UACC-257
[5] = system: SR
[6] = system: SK-MEL-5
[7] = system: BT-549
[8] = system: MOLT-4
[9] = system: HOP-92
[10] = system: U-251
[11] = system: TK-10
[12] = system: MDA-MB-231
[13] = system: K562
[14] = system: SK-MEL-2
[15] = system: HCC 2998
[16] = system: MDA-N
[17] = system: RPMI-8226
[18] = system: LOX IMVI
[19] = system: MCF7
[20] = system: NCI-H226
[21] = system: CCRF-CEM
[22] = system: UACC-62
[23] = system: SN12C
[24] = system: NCI-H460
[25] = system: PC-3
[26] = system: COLO 205
[27] = system: OVCAR-8
[28] = system: A498
[29] = system: Malme-3M
[30] = system: NCI-H23
[31] = system: ACHN
[32] = system: IGROV-1
[33] = system: SF-268
[34] = system: SW-620
[35] = system: NCI-H522
[36] = system: SF-539
[37] = system: SK-MEL-28
[38] = system: HCT-116
[39] = system: HL-60
[40] = system: Hs-578T
[41] = system: CAKI-1
[42] = system: M14
[43] = system: SNB-19
[44] = system: KM12
[45] = system: HOP-62
[46] = system: MDA-MB-435
[47] = system: SK-OV-3
[48] = system: UO-31
[49] = system: SNB-75
[50] = system: DU-145
[51] = system: EKVX
[52] = system: RXF 393
[53] = system: HT-29
[54] = system: OVCAR-5
[55] = system: SF-295
[56] = system: OVCAR-3
[57] = system: A549

`Nc1c2c(nc3ccccc13)-c1ccccc1CC2` was tested, and the GI50 [1] was 5.32 µM (inactive), the GI50 [2] was 3.96 µM and the GI50 [3] was 3.52 µM (inactive). For the same compound, the GI50 [4] was 2.82 µM (inactive), the GI50 [5] was 2.33 µM (inactive) and the GI50 [6] was 4.04 µM (inactive). For the same compound, the GI50 [7] was 13.2 µM (inactive), the GI50 [8] was 2.38 µM (inactive) and the GI50 [9] was 8.09 µM (inactive). For the same compound, the GI50 [10] was 4.17 µM (inactive), the GI50 [11] was 3.96 µM (inactive) and the GI50 [12] was 3.88 µM (inactive). For the same compound, the GI50 [13] was 3.56 µM (inactive), the GI50 [14] was 11 µM (inactive) and the GI50 [15] was 1.43 µM (inactive). The GI50 [16] was 4.19 µM (inactive), the GI50 [17] was 4.09 µM (inactive) and the GI50 [18] was 4.34 µM (inactive). For the same compound, the GI50 [19] was 1.85 µM (inactive), the GI50 [20] was 12.1 µM (inactive) and the GI50 [21] was 3.4 µM (inactive). The GI50 [22] was 9.68 µM (inactive), the GI50 [23] was 4.06 µM (inactive) and the GI50 [24] was 2.12 µM (inactive). For the same compound, the GI50 [25] was 3.59 µM (inactive), the GI50 [26] was 3.76 µM (inactive) and the GI50 [27] was 4.37 µM (inactive). For the same compound, the GI50 [28] was 3.16 µM (inactive), the GI50 [29] was 8.49 µM (inactive) and the GI50 [30] was 10.6 µM (inactive). The GI50 [31] was 3.56 µM (inactive), the GI50 [32] was 3.82 µM (inactive) and the GI50 [33] was 7.82 µM (inactive). The GI50 [34] was 3.15 µM (inactive), the GI50 [35] was 8.67 µM (inactive) and the GI50 [36] was 3.24 µM (inactive). The GI50 [37] was 10.4 µM (inactive), the GI50 [38] was 3.76 µM (inactive) and the GI50 [39] was 0.942 µM (active). For the same compound, the GI50 [40] was 16.4 µM (inactive).

With `Cn1cc(NC(=O)c2cc(NC(=O)c3cc(NC=O)cn3C)cn2C)cc1C(=O)NCCC(=N)N` [STALLIMYCIN] the GI50 [1] was > 100 µM (inactive), the GI50 [41] was > 100 µM (inactive) and the GI50 [42] was > 100 µM (inactive). For the same compound, the GI50 [2] was > 100 µM, the GI50 [3] was > 100 µM (inactive) and the GI50 [4] was > 100 µM (inactive). The GI50 [43] was > 100 µM (inactive), the GI50 [6] was > 100 µM (inactive) and the GI50 [7] was > 100 µM (inactive). For the same compound, the GI50 [8] was > 100 µM (inactive), the GI50 [10] was > 100 µM (inactive) and the GI50 [11] was > 100 µM (inactive). For the same compound, the GI50 [44] was > 100 µM (inactive), the GI50 [12] was > 100 µM (inactive) and the GI50 [13] was > 100 µM (inactive). The GI50 [45] was > 100 µM (inactive), the GI50 [14] was > 100 µM (inactive) and the GI50 [17] was > 100 µM (inactive). For the same compound, the GI50 [18] was > 100 µM (inactive), the GI50 [19] was > 100 µM (inactive) and the GI50 [46] was > 100 µM (inactive). The GI50 [47] was > 100 µM (inactive), the GI50 [48] was > 100 µM (inactive) and the GI50 [20] was 7.87 µM (inactive). For the same compound, the GI50 [49] was 22.8 µM (inactive), the GI50 [21] was > 100 µM (inactive) and the GI50 [22] was 61.4 µM (inactive). For the same compound, the GI50 [50] was > 100 µM (inactive), the GI50 [23] was > 100 µM (inactive) and the GI50 [24] was > 100 µM (inactive). The GI50 [51] was > 100 µM (inactive), the GI50 [25] was > 100 µM (inactive) and the GI50 [26] was > 100 µM (inactive). The GI50 [27] was > 100 µM (inactive), the GI50 [28] was 87.9 µM (inactive) and the GI50 [29] was 25.5 µM (inactive). The GI50 [30] was > 100 µM (inactive), the GI50 [31] was > 100 µM (inactive) and the GI50 [52] was > 100 µM (inactive). The GI50 [53] was > 100 µM (inactive), the GI50 [32] was > 100 µM (inactive) and the GI50 [54] was > 100 µM (inactive). For the same compound, the GI50 [33] was > 100 µM (inactive), the GI50 [34] was > 100 µM (inactive) and the GI50 [55] was > 100 µM (inactive). For the same compound, the GI50 [56] was > 100 µM (inactive), the GI50 [36] was > 100 µM (inactive) and the GI50 [37] was > 100 µM (inactive). The GI50 [38] was > 100 µM (inactive), the GI50 [39] was > 100 µM (inactive) and the GI50 [40] was 53.1 µM (inactive).

For `CC(=O)OCC1OC(n2c(-c3ccccc3)cc(-c3ccccc3)c(C#N)c2=O)C(OC(C)=O)C(OC(C)=O)C1OC(C)=O` (stereo not drawn), the GI50 [52] was 56 µM (inactive).

With `Cc1nc2ccc(Cl)cc2c(Cl)c1CCCl` the GI50 [1] was 33.5 µM (inactive), the GI50 [41] was 54 µM (inactive) and the GI50 [42] was 31 µM (inactive). The GI50 [2] was 43.1 µM, the GI50 [3] was > 100 µM (inactive) and the GI50 [4] was 74 µM (inactive). The GI50 [43] was 45.4 µM (inactive), the GI50 [5] was 34.4 µM (inactive) and the GI50 [6] was 25.3 µM (inactive). The GI50 [8] was 15.6 µM (inactive), the GI50 [9] was 33.5 µM (inactive) and the GI50 [10] was 45.9 µM (inactive). The GI50 [11] was > 100 µM (inactive), the GI50 [44] was 30.8 µM (inactive) and the GI50 [12] was 83.6 µM (inactive). The GI50 [13] was 9.86 µM (inactive), the GI50 [45] was 42.4 µM (inactive) and the GI50 [14] was 29.6 µM (inactive). For the same compound, the GI50 [15] was 30.7 µM (inactive), the GI50 [16] was 8.15 µM (inactive) and the GI50 [17] was 35.2 µM (inactive). For the same compound, the GI50 [18] was 43.6 µM (inactive), the GI50 [19] was 30.6 µM (inactive) and the GI50 [46] was 8.36 µM (inactive). The GI50 [47] was > 100 µM (inactive), the GI50 [48] was 42.2 µM (inactive) and the GI50 [20] was 43.6 µM (inactive). For the same compound, the GI50 [49] was 29.4 µM (inactive), the GI50 [21] was 15.1 µM (inactive) and the GI50 [22] was 28.1 µM (inactive). For the same compound, the GI50 [50] was 43.7 µM (inactive), the GI50 [23] was 39.5 µM (inactive) and the GI50 [24] was 43.4 µM (inactive). The GI50 [51] was 51.3 µM (inactive), the GI50 [25] was 80.7 µM (inactive) and the GI50 [26] was 57.3 µM (inactive). The GI50 [57] was 40.9 µM (inactive), the GI50 [27] was 62.4 µM (inactive) and the GI50 [28] was 83 µM (inactive). The GI50 [29] was > 100 µM (inactive), the GI50 [30] was 60.4 µM (inactive) and the GI50 [31] was > 100 µM (inactive). The GI50 [52] was > 100 µM (inactive), the GI50 [53] was 27.2 µM (inactive) and the GI50 [32] was 72.6 µM (inactive). The GI50 [54] was 38.5 µM (inactive), the GI50 [33] was > 100 µM (inactive) and the GI50 [34] was 40.2 µM (inactive). For the same compound, the GI50 [55] was 48.2 µM (inactive), the GI50 [56] was 48 µM (inactive) and the GI50 [35] was 39.3 µM (inactive). The GI50 [36] was > 100 µM (inactive), the GI50 [37] was > 100 µM (inactive) and the GI50 [38] was 25.4 µM (inactive). The GI50 [39] was 46.6 µM (inactive) and the GI50 [40] was 38.1 µM (inactive).
